Tests used:
Assay in all cases: relative viability (nuclei count vs DMSO), 5 days (fraction); higher = more cells survive
[1] = compound: NCC(=O)Nc1ccc(-n2nc(C(F)(F)F)cc2-c2ccc3c(ccc4ccccc43)c2)cc1 + CS(=O)(=O)N1CCN(Cc2cc3nc(-c4cccc5[nH]ncc45)nc(N4CCOCC4)c3s2)CC1 [Pictilisib] (partner 1 µM)
Summary of the method: (§1)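 Medians of duplicate plates are given as relative viability. That measure is the nuclei count in treated wells divided by the count in vehicle wells. Counts were taken on 4× images of lung cancer cell lines in 1536-well plates, 5 days after pin-tool dosing the day after seeding with one drug alone or a fixed anchor-drug dose plus five library-drug doses (not always all listed) in √10 steps.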

[2] = compound: NCC(=O)Nc1ccc(-n2nc(C(F)(F)F)cc2-c2ccc3c(ccc4ccccc43)c2)cc1 + O=C(CCCCCCC(=O)Nc1ccccc1)NO [Vorinostat] (partner 1 µM)
Summary of the method: as §1

[3] = compound: C1CSC2=C(C(=O)N1)SC3=C2C=C(C=C3)O [kb NB 142-70] + Nc1nc2[nH]cc(CCc3ccc(C(=O)N[C@@H](CCC(=O)O)C(=O)O)cc3)c2c(=O)[nH]1 [Pemetrexed] (partner 0.2 µM)
Summary of the method: as §1

kb NB 142-70 + Olaparib = compound: C1CSC2=C(C(=O)N1)SC3=C2C=C(C=C3)O [kb NB 142-70] + O=C(c1cc(Cc2n[nH]c(=O)c3ccccc23)ccc1F)N1CCN(C(=O)C2CC2)CC1 [Olaparib] (partner 8 µM)
Summary of the method: as §1

Cell Line | relative viability ([1]; first compound 0.02 µM) | relative viability ([1]; first compound 0.06325 µM) | relative viability ([1]; first compound 0.2 µM) | relative viability ([1]; first compound 0.6325 µM) | relative viability ([1]; first compound 2 µM) | relative viability ([2]; first compound 0.02 µM) | relative viability ([2]; first compound 0.06325 µM) | relative viability ([2]; first compound 0.2 µM) | relative viability ([2]; first compound 0.6325 µM) | relative viability ([2]; first compound 2 µM) | relative viability ([3]; first compound 0.1 µM) | relative viability ([3]; first compound 1 µM) | relative viability ([3]; first compound 3.162 µM) | relative viability (kb NB 142-70 + Olaparib; first compound 0.1 µM) | relative viability (kb NB 142-70 + Olaparib; first compound 1 µM) | relative viability (kb NB 142-70 + Olaparib; first compound 3.162 µM)
EMC-BAC-2 | 0.509 | 0.558 | 0.558 | 0.545 | 0.506 | 0.454 | 0.511 | 0.569 | 0.514 | 0.488 | 0.438 | 0.483 | 0.451 | 0.531 | 0.505 | 0.384
EPLC-272H | 0.28 | 0.378 | 0.285 | 0.344 | 0.319 | 0.354 | 0.538 | 0.491 | 0.573 | 0.501 | 0.433 | 0.386 | 0.176 | 0.761 | 0.481 | 0.121
H3255 | 0.553 | 0.527 | 0.493 | 0.467 | 0.513 | 0.766 | 0.84 | 0.872 | 0.809 | 0.722 | 0.572 | 0.568 | 0.58 | 0.559 | 0.577 | 0.604
HARA | 0.418 | 0.355 | 0.486 | 0.568 | 0.559 | 0.552 | 0.518 | 0.596 | 0.578 | 0.551 | 0.251 | 0.293 | 0.225 | 0.873 | 0.602 | 0.547
HCC-15 | 0.705 | 0.773 | 0.8 | 0.747 | 0.743 | 0.878 | 0.94 | 1.04 | 0.861 | 0.841 | 0.227 | 0.238 | 0.227 | 0.722 | 0.748 | 0.752
HCC-44 | 0.5 | 0.638 | 0.633 | 0.684 | 0.659 | 1.17 | 1.19 | 1.03 | 1.05 | 1.12 | 0.554 | 0.731 | 0.69 | 0.945 | 0.981 | 0.974
HCC-78 | 0.208 | 0.245 | 0.216 | 0.205 | 0.203 | 0.398 | 0.481 | 0.472 | 0.466 | 0.454 | 0.896 | 0.907 | 0.899 | 0.791 | 0.773 | 0.83
HCC-366 | 0.147 | 0.205 | 0.174 | 0.172 | 0.141 | 0.254 | 0.423 | 0.419 | 0.357 | 0.435 | 0.182 | 0.214 | 0.34 | 0.371 | 0.509 | 0.443
HCC-827 | 1.01 | 1.15 | 1.05 | 0.79 | 0.896 | 0.906 | 0.335 | 0.876 | 0.9 | 0.834 | 0.25 | 0.243 | 0.267 | 0.655 | 0.62 | 0.404
HOP-62 | 0.775 | 0.577 | 0.68 | 0.752 | 0.623 | 0.536 | 0.534 | 0.668 | 0.501 | 0.7 | 0.3 | 0.361 | 0.388 | 0.457 | 0.39 | 0.333

Source: the supplement of paper PMC10307832
